Legend:
Whey protein = assay: Hydrolysis of unaltered Whey protein by polyoxometalates, monitored by SDS-PAGE; format: biochemical; settings: 60°C, 1.5 mg/ml Whey protein, polyoxometalate 14 mg/ml
Procedure: (§1) All gels were 100x100x1 mm and the stacking gel was approximately 1 cm long from the bottom of the comb to the top of the resolving gel resulting in a resolving gel of 8 cm. 2. Table 1: Composition of the solutions to prepare 18% resolving and 5% stacking gel.
(§2) After pouring the resolving gel, a thin layer of isopropanol was carefully added on top of the gel. The resolving gel was left 1 hour to harden, and isopropanol was removed before pouring the stacking gel. A 12 well comb was placed inside the stacking gel and left to harden for an additional hour. The finished gels were kept in the fridge.
(§3) Samples were prepared by mixing a 10 µl of sample with 5 µl of 3X sample buffer (225 µl TRIS/HCI buffer (1M, pH 6.8), 630 mg glycerol, 50 mg SDS, 0.5 mg bromophenol blue and 250 µl 1 M DTI), incubating at 95 °C for 5 minutes and centrifuging the samples after they are cooled to room temperature. The wells of the stacking gel were loaded with 10 µl of sample and 5 µl of protein ladder.
(§4) An OmniPAGE electrophoretic cell was combined with an EV243 power supply (both produced by Consort) in experiments at 30 mA/gel and 100 V/gel for the 18% resolving gel (approximately 2.5 hours) and 20 mA/gel and 100 V/gel for the 12% resolving gel (approximately 1.5 hours). As anode and cathode buffer a TRIS/Tricine running buffer (0.1 M TRIS, 0.1 M Tricine and 0.1 wt/vol% SDS) was used for 18% gels and a TRIS/Glycine running buffer (0.2 M Glycine, 0.025 M TRIS and 0.1 wt/vol% SDS) for 12% gels. Before staining the gels were fixed for 1 hour in a 12 wt/vol% TCA solution. The staining was done by leaving the gels in a colloidal coomassie blue solution (700 ml H2O, 100 ml H3PO4, […], 1.2 g coomassie blue and 200 ml methanol) over night and subsequently destained with a heavy destain solution {60 ml methanol, 20 ml acetic acid and 120 ml water) and water. Finally, the gels were analyzed with a Gel Doc EZ imager and Image LabTM Software (both supplied by Bio-Rad). The kinetics of the reactions were studied by plotting the relative intensity of the intact proteins band in function of time and fitted to the exponential expression of a pseudo first-order reaction: I = I0 e^-kobst
(§5) In this equation I represents the intensity in function of time t, I0 the intensity at time 0 and kobs is the observed hydrolysis rate. The half-life (t½) of the intact protein was calculated according to t½ = (ln(2))/(kobs) [formula]
(§6) To solutions of 1.0 mg/ml solution of unaltered Ovalbumin or the Lactose/Ovalbumin Maillard reaction samples of example 4 or of 1.5 mg/ml solution of unaltered Whey protein or the Lactose/Whey protein Maillard reaction samples of example 4 were added the polyoxometalates of examples 1 to 3 at a concentration of 14 mg/ml. The rate of hydrolysis for the proteins at 60°C at pH 4 (sodium citrate buffer, 10 mM) and 9 (glycine/NaOH buffer, 10 mM) was studied over time. Results for the hydrolysis rate and the half-life of the unaltered protein samples are given in tables 5 and 6 and results for the half-life of altered proteinaceous samples of example 4 (treated at pH 9) are given in table 7. Table 5: Hydrolysis of unaltered Whey protein

Ovalbumin = target: T1, Ovalbumin (Gallus gallus, UniProt P01012); assay: Hydrolysis of unaltered Ovalbumin by polyoxometalates, monitored by SDS-PAGE; format: biochemical, chicken; settings: 60°C, 1.0 mg/ml Ovalbumin, polyoxometalate 14 mg/ml
T1 construct: Ovalbumin from chicken egg was purchased from Acros (Mw 44.5 kDa); purchased Acros; host or cells: chicken egg
T1 sequence (P01012 1-386): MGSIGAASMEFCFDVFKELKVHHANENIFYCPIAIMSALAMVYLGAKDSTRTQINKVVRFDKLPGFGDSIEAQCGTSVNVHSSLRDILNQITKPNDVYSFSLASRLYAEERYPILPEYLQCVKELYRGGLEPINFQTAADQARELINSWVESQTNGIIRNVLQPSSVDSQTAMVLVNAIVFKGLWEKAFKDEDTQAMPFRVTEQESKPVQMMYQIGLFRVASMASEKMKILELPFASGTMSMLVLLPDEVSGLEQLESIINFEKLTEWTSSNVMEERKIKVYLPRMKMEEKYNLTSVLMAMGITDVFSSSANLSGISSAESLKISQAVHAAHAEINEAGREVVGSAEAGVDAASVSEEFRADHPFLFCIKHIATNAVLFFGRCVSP
Procedure: as §1, §2, §3, §4, §5, §6

[1] = pH 4 (sodium citrate buffer, 10 mM)
[2] = pH 9 (glycine/NaOH buffer, 10 mM)

For ((C2H5)2NH2)6[Zr2(PW11O39)2] [Zr2Ke2], the “Rate x 10^-3 [min^-1]” value (Whey protein; [1]) was 3.8±0.8 x 10^-3 min^-1, the “Rate x 10^-3 [min^-1]” value (Whey protein; [2]) was 1±1 x 10^-3 min^-1 and the “Rate x 10^-3 [min^-1]” value (Ovalbumin; [1]) was 6±3 x 10^-3 min^-1. For the same substance, the “Rate x 10^-3 [min^-1]” value (Ovalbumin; [2]) was 7±3 x 10^-3 min^-1.

In the case of ((C2H5)2NH2)10[Zr(PW11O39)2] [ZrKe2], the “Rate x 10^-3 [min^-1]” value (Whey protein; [1]) is reported as 1.8±0.7 x 10^-3 min^-1, the “Rate x 10^-3 [min^-1]” value (Whey protein; [2]) is reported as 6±1 x 10^-3 min^-1 and the “Rate x 10^-3 [min^-1]” value (Ovalbumin; [1]) is reported as 4.3±0.4 x 10^-3 min^-1. For the same substance, the “Rate x 10^-3 [min^-1]” value (Ovalbumin; [2]) was 5±2 x 10^-3 min^-1.

For K10[Ce(PW11O39)2] [CeKe2], the “Rate x 10^-3 [min^-1]” value (Whey protein; [1]) was 9±5 x 10^-3 min^-1, the “Rate x 10^-3 [min^-1]” value (Whey protein; [2]) was 5.30±0.04 x 10^-3 min^-1 and the “Rate x 10^-3 [min^-1]” value (Ovalbumin; [1]) was 6±2 x 10^-3 min^-1. For the same substance, the “Rate x 10^-3 [min^-1]” value (Ovalbumin; [2]) was 7±1 x 10^-3 min^-1.

Source: EP3677663A1, “NON-ENZYMATIC REMOVAL OF PROTEINACEOUS SOILS” (Henkel AG & Co. KGaA, priority 2019, dated 2020)
